Results taken from patent US20230416785A1, “NUCLEASE AND APPLICATION THEREOF” (CRISP-HR Therapeutics, Inc., priority 2020, published 2023).
“Also recorded” adds a separate entry of the source.

Key:
Assay type in all cases: cell-based, human
H1299 cells = assay: Cellular viability of transfected H1299 cells (resazurin assay); conditions: for cellular viability compared to RLucRT alone: H1299 cells, AAVS1 G1 or G2 plus RLucRT, two days
Description: (§1) Next the viability of transfected cells was quantified via resazurin after two days, then cells were washed with PBS, then lysed and luminescence quantified via plate reader (FIG. 4B). […] Next Luminescence was quantified via the Renilla-Glo Luciferase Assay System (Promega) using a 96 well plate reader with luminescence capabilities (Tecan). After data collection, raw luminescence was background subtracted from non-transfected control cells, corrected for cellular viability, and plotted in FIG. 4D.
Unless otherwise noted, adherent cells (A549 or H1299) were seeded in 96 well plates and grown in either 50/50 F-12/DMEM or RPMI-1640 respectively, supplemented with 5% FBS and grown to roughly 70% confluency. Cells were then transfected with either Cal-Phos as described in Chen 2012 or Lipofectamine 3000 (Thermofisher). Fresh media was exchanged the next day and cellular viability was quantified on day 2.
20 μL of 0.15 mg/mL Resazurin solution was added to cells either plated in 96 well plates for all cell lines, which were then incubated for ˜4 hours at 37° C. Cellular toxicity was quantified using a Tecan SpectraFlour Plus plate reader (Tecan) using a 535/595 filter set. Raw data was then normalized to the mean of the untransfected controls and plotted as described.
(§2) After two days, cellular viability was quantified via Resazurin, then washed with PBS and lysed with 25 μL of cell lysis buffer, and luciferase activity was quantified via Renilla Luciferase Assay (Promega) and using a Tecan Infinite Mplex plate reader.

endogenous H2B = assay: H2B-mNeon knock-in HDR quantification in K562 cells; conditions: H2B-mNeon RT
Protocol: After two days, cells were fixed in 4% PFA washed in PBS, then directly imaged, with cells showing nuclear localized fluorescence counted as successful HDR events.
K562 were grown in 24 well plates with RPMI-1640 supplemented with 5% FBS until roughly 70% confluent. At that time cells were either electroporated using the mNeon system (Invitrogen) using optimized settings for K562 cells, or lipofectamine 3000 again following manufactures instructions. Cells were then returned to 24 well plates with fresh media and grown for at least two days before being used in downstream analysis.
After 2 days, cells attached to coverslips coated with 0.01% poly-1-lysine, and were fixed in 4% PFA (Thermofisher) for 15 minutes at RT. After fixation, cells were washed 3× in PBS, mounted in 50% glycerol and imaged on a Nikon Eclipse E600 with standard FITC filters. For quantification, random patches of cells (usually between 8-15 cells per image) were identified via Brightfield, then fluoresce images were taken with constant illumination and exposure time (100%, and 110 ms respectively).

[1] = system: intergenic region on Chromosome 6 (Int-G2, Int-G3); assay: PuroRT HDR quantification in K562 cells (puromycin survival)
Description: The target integration site is approximately ˜1 kb to the 3′ end of the human H2B gene on Chromosome 6, an intergenic region which has no predicted genes or long non-coding RNA.
Next, to assay HDR rates, K562 cells were again used instead of A549 cells, as the lack of a functional p53 gene should help to deconvolute HDR rates from cellular toxicity effects. […] After two days, DNA was extracted from ˜ 1/10 of surviving cells and used for analysis of Puro RT genomic integration. The next day, 0.5 mg/mL puromycin was added, and after three days cellular survival was quantified via resazurin assay as described previously.
After two days, 1/10 of cells were taken for DNA extraction, while the rest were treated with 0.5 μg/mL puromycin. Cells were grown for a further 3 days then viability quantified via Resazurin assay.

AAVS1 [2] = assay: RLucRT luminescence HDR assay in H1299 cells; conditions: for luminescence relative to Cas9: RLucRT (2.0 kb)
Protocol: FIG. 4B illustrates experimental procedures for RLucRT experiments. Diagram showing experimental procedure for the dsDNA RLucRT HDR assay in H1299 cells. […] After two days, cellular viability is quantified via Resazurin assay, then cells are washed with PBS then lysed. Lysate is then incubated with Coelenterazine, and luminescence immediately quantified via plate reader.
For these experiments, the well characterized safe harbor site AAVS1 was used combined with previously established and functional guide RNAs AAVS1 T1 and T2, which will be referred to as G1 and G2 respectively hereafter. […] As with the puromycin resistance cassette, PCR amplified dsDNA was used as opposed to plasmids to avoid confounding results when quantifying HDR rates, and to avoid extra integration of plasmid specific sequences in the genome.
as §1, §2

AAVS1 [3] = assay: RLucRT HDR assay in A549 cells; conditions: G1
Beta-Catenin1 [4] = assay: Beta-Catenin1:mCherry HDR in H1299 cells
Protocol: (§3) After three days, media was replaced with HBSS (to reduce background for imaging) imaged using an EVOS M5000 imaging system. Imaging was performed by randomly finding and focusing on at least ten different sections per well using a 20× magnification lens, after which both brightfield and RFP images were acquired. Imaged were quantified by hand, using control images as the basis for RFP/mCherry background fluorescence.

Beta-Catenin1 [5] = assay: Beta-Catenin1:mCherry knock-in in HEK293 cells
Cadherin1 = assay: Cadherin1:mCherry HDR in H1299 cells
Protocol: as §3, with “10×” for “20×”

CDH1 = assay: CDH1:mCherry knock-in in HEK293 cells; conditions: Ecad-G1
Protocol: After three days, media was replaced with HBSS (to reduce background for imaging) imaged using an Cytation5 imaging system. Imaging was performed by taking a 6×6 stitched image in the middle of the well using an 10× magnification lens, where both brightfield and RFP images were acquired. HDR rates were quantified via ImageJ, two independent replicates were performed per treatment. FIG. 13A illustrates a Cadherin1:mCherry RT design showing the human genomic region surrounding the last exon (exon 16) of Cadherin1. Two different gRNAs are denoted by black arrows (G1, G2), with arrow direction indicating the targeted strand. A repair template was constructed containing about 750 bp long 5′ and 3′ Homology arms, exon 16 of Cadherin1, silent mutations introduced to prevent gRNA binding to the RT, and a direct fusion of the fluorescent protein mCherry. FIG. 13B illustrates quantification of Cadherin1:mCherry HDR rate in H1299 cells showing the average mCherry+ cells per image section (>10 for all conditions) imaged at day 3 post transfection.

[6] = system: Safe Harbor Site (SHS)-231; assay: SHS-231 mNeon knock-in in H1299 cells
Description: After reaching confluency, cells were tryspinized and seeded in 6 well plates, which were then imaged at 10× magnification using a Leica THUNDER Epifluorescent microscope. After imaging, thresholds and ROIs for mNeon+ cells were generated using FIJI (ImageJ).
After 7 days, cells were tryspinized and transferred to 6 well plates, and grown for an additional 7 days. On Day 14, media was replaced with HBSS (to reduce background for imaging) and imaged using a Cytation5 imaging system. Imaging was performed by taking a 6×6 stitched image in the middle of the well using an 10× magnification lens, where both brightfield and RFP images were acquired. HDR rates were quantified via ImageJ, two independent replicates were performed per treatment.

[7] = comparison with Dna2 fusions, day 3
[8] = SHS-231 G1, 14 Days, stitched images

In the case of “Cas9-HR 8: hExo1(1-352)-Cas9 fusion of FIG. 1A; E. coli codon optimized vectors SEQ ID NO: 68 and 69”, the “toxicity in H1299 cells compared to A549” value (H1299 cells; H1299 cells (lack functional p53 gene), H2B-G4 guide) is reported as “small reduction”, the “cellular viability compared to RLucRT alone” value (H1299 cells) is reported as “slightly reduced” and the “cellular viability compared to RLucRT alone” value (H1299 cells; listed as Cas9-HR8) is reported as “no gross changes in cellular viability”. For the same substance, the “PCR of 5′ and 3′ knock-in junctions” value (endogenous H2B; genome specific plus RT specific primers) was “Successful amplification”, the “HDR rate (cells with nuclear localized mNeon fluorescence)” value (endogenous H2B; hH2B-G4, two days, compared to Cas9-HR 4 or Cas9) was “significant increase in HDR rate” and the “PCR of genomic integration of Puro RT at 5′ and 3′ ends” value [1] was “successful integration of the repair template”. The “nested junction PCR of RLucRT integration (5′ and 3′)” value (AAVS1 [2]; AAVS1-G1) was “Strong specific amplification”, the “luminescence relative to Cas9” value (AAVS1 [2]; AAVS1 G1) was roughly 2.5 fold and the “luminescence relative to Cas9” value (AAVS1 [2]; AAVS1 G2) was roughly 2 fold. The “luminescence, AAVS1-G1 compared with AAVS1-G2” value (AAVS1 [2]; background subtracted) was “significantly higher luminescence”, the “increase in HDR rates compared to Cas9 (Cas9 normalized luminescence)” value (AAVS1 [2]; both G1 and G2) was 2-3 × and the “HDR rates compared to Cas9 (normalized luminescence)” value (AAVS1 [3]) was roughly 2.5 ×. For the same substance, the “fold change in mCherry+ cells relative to Cas9” value (Beta-Catenin1 [4]; G2, day 3) was roughly 2.5 fold, the “fold change in mCherry+ cells relative to Cas9” value (Beta-Catenin1 [4]; G3, day 3) was roughly 2.5 fold and the “fold increase in mCherry+ cells relative to Cas9” value (Beta-Catenin1 [4]; all guide polynucleotides (G1, G2, G3), day 3) was greater than 2 fold. For the same substance, the “mCherry+ cells compared to Cas9” value (Beta-Catenin1 [4]; all three gRNAs, day 3) was “significant increases in mCherry+ cells”, the “positive cell count compared to Beta-Catenin1:mCherry alone” value (Beta-Catenin1 [4]; average mCherry+ cells per image section, day 3) was “significant increases in positive cell count” and the “HDR rates compared to Cas9 (normalized knock-in rates)” value (Beta-Catenin1 [5]; B-Cat-G3) was roughly 2.5 ×. The “absolute mCherry+ cells relative to Cas9-NT or repair template alone” value (Beta-Catenin1 [5]; Beta-Catenin-G1) was “significant increases in mCherry+ cells”, the “numbers of mCherry+ cells compared to repair template” value (Beta-Catenin1 [5]; Beta-Catenin-G1) was “significantly increased numbers of mCherry+ cells” and the “mCherry+ cells, whole well imaging” value (Cadherin1; H1299 cells, 12 well plate, Ecad-G1, 4 Days after transfection) was “significant amounts of mCherry+ cells; also recorded: significantly higher amounts of mCherry+ cells”. The “fold change in mCherry+ cells relative to Cas9” value (Cadherin1; H1299 cells, G1, day 3) was roughly 2.3 fold, the “fold increase in mCherry+ cells relative to Cas9” value (Cadherin1; H1299 cells, all guide polynucleotides, day 3) was greater than 1.5 fold and the “mCherry+ cells compared to Cas9” value (Cadherin1; H1299 cells, all three gRNAs (so in the source), day 3) was “significant increases in mCherry+ cells”. The “positive cell count compared to Cadherin1:mCherry alone” value (Cadherin1; H1299 cells, average mCherry+ cells per image section, day 3) was “significant increases in positive cell count”, the “normalized Cadherin1:mCherry HDR rate (fold change compared to Cas9)” value (Cadherin1; comparison with Dna2 fusions) was “significantly higher HDR rate” and the “mCherry+ cell count compared to Cadherin1:mCherry RT alone” value (Cadherin1; [7]) was “significant increases in mCherry+ cell count”. The “mCherry+ cells compared to Cas9” value (Cadherin1; [7]) was “significant increases in mCherry+ cells”, the “HDR rates compared to Cas9 (normalized knock-in rates)” value (CDH1) was roughly 3.5 × and the “absolute mCherry+ cells relative to Cas9-NT or repair template alone” value (CDH1) was “significant increases in mCherry+ cells”. The “numbers of mCherry+ cells compared to repair template” value (CDH1) was “significantly increased numbers of mCherry+ cells”, the “cellular fluorescence (expression) levels of mNeon+ cells compared to Cas9” value ([6]; 14 days) was “much more uniform and lower expression levels” and the “absolute numbers of mNeon+ cells” value ([6]; SHS-231-G1, SHS-231-mNeon RT, 14 days post-transfection) was 3652. The “mNeon cell counts normalized to Cas9” value ([6]; SHS-231-G2, two independent experiments) was “increase of HDR rates”, the “GFP+ cells compared to Cas9” value [6, 8] was “significantly more GFP+ cells” and the “total cells compared to Cas9” value [6, 8] was “significantly more total cells”.
